Data on one compound can be found in PMC6576746, “Rational discovery of dual-indication multi-target PDE/Kinase inhibitor for precision anti-cancer therapy using structural systems pharmacology” (PLoS Computational Biology, 2019).

One assay concerns the target T1, GAK (Homo sapiens, UniProt O14976).
T1 construct: DiscoverX KinomeScan panel kinase
In words: KinomeScan competition binding assay. The conditions noted are these: 10 μM levosimendan.

The next assay has as its target BMPR1A (Homo sapiens, UniProt P36894). In words: biochemical. Also on record: DiscoverX KinomeScan competition binding assay across human kinases; per cent of control at 10 and 100 uM. The conditions noted are these: competition binding, % of control; read-out: Percent Control (100 uM Levosimendan). The method, boiled down: (§1)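 Binding is expressed as %control, normalised between positive and negative control signals. The compound (levosimendan) was tested at 10 μM and 100 μM in the DiscoverX KinomeScan competition binding format against human kinases.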

The target in another assay is CAMKK2 (Homo sapiens, UniProt Q96RR4). In words: biochemical. Also on record: DiscoverX KinomeScan competition binding assay across human kinases; per cent of control at 10 and 100 uM. The settings on record: competition binding, % of control; read-out: Percent Control (100 uM Levosimendan). The procedure, abridged:
as §1

A further assay concerns the target MET(M1250T) (Homo sapiens, UniProt P08581, M1250T). Description: biochemical. Also on record: DiscoverX KinomeScan competition binding assay across human kinases; per cent of control at 10 and 100 uM. The settings on record: competition binding, % of control; read-out: Percent Control (100 uM Levosimendan). The procedure, abridged: as §1
The next assay deals with MYO3B (Homo sapiens, UniProt Q8WXR4). In words: biochemical. The settings on record: competition binding, % of control; read-out: Percent Control (100 uM Levosimendan). Also on record: DiscoverX KinomeScan competition binding assay across human kinases; per cent of control at 10 and 100 uM. The procedure, abridged:
as §1

For assay [1], the target named is T2, RSK4(Kin.Dom.2-C-terminal) (Homo sapiens, UniProt Q9UK32).
T2 construct: gene RPS6KA6; Kin.Dom.2-C-terminal
Description: biochemical. The settings on record: competition binding, % of control. Also on record: DiscoverX KinomeScan competition binding assay across human kinases; per cent of control at 10 and 100 uM. The method, boiled down: as §1

The next assay concerns the target SBK1 (Homo sapiens, UniProt Q52WX2). Description: biochemical. Also on record: DiscoverX KinomeScan competition binding assay across human kinases; per cent of control at 10 and 100 uM. The conditions noted are these: competition binding, % of control; read-out: Percent Control (100 uM Levosimendan). The procedure, abridged:
as §1

Another assay concerns the target KIT (Homo sapiens, UniProt P10721). In words: KinomeScan competition binding assay. Also on record: DiscoverX KinomeScan panel kinase. The conditions noted are these: 10 μM levosimendan.
Another assay concerns the target T3, MYLK4 (Homo sapiens, UniProt Q86YV6).
T3 sequence (Q86YV6 1-388): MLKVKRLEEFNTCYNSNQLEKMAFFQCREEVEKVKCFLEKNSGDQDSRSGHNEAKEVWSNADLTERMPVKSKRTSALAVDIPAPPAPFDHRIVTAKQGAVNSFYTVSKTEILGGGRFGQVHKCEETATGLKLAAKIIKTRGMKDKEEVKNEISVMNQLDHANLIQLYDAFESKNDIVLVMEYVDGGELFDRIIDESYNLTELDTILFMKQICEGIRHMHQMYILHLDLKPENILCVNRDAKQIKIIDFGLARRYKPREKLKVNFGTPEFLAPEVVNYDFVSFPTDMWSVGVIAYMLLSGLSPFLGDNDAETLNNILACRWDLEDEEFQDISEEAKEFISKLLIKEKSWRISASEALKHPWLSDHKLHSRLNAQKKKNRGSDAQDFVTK
In words: KinomeScan competition binding assay. Also on record: DiscoverX KinomeScan panel kinase. The settings on record: 100 μM levosimendan.

Another assay deals with T4, RIOK3 (Homo sapiens, UniProt O14730).
T4 sequence (O14730 1-519): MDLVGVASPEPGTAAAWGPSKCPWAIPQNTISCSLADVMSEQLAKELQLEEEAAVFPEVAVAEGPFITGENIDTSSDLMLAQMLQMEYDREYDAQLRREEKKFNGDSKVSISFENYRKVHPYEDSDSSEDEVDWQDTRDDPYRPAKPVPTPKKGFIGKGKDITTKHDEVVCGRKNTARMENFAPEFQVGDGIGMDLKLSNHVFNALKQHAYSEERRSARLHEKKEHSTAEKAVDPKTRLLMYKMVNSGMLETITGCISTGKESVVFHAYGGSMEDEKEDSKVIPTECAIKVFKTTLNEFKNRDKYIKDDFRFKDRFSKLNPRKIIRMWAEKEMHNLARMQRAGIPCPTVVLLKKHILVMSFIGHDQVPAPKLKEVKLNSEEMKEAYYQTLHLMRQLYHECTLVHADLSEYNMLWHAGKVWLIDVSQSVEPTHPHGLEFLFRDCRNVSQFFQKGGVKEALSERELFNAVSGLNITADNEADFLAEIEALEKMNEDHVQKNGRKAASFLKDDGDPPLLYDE
Description: KinomeScan competition binding assay. The settings on record: 10 μM and 100 μM levosimendan. Also on record: DiscoverX KinomeScan panel kinase.

T2 sequence (Q9UK32 whole entry): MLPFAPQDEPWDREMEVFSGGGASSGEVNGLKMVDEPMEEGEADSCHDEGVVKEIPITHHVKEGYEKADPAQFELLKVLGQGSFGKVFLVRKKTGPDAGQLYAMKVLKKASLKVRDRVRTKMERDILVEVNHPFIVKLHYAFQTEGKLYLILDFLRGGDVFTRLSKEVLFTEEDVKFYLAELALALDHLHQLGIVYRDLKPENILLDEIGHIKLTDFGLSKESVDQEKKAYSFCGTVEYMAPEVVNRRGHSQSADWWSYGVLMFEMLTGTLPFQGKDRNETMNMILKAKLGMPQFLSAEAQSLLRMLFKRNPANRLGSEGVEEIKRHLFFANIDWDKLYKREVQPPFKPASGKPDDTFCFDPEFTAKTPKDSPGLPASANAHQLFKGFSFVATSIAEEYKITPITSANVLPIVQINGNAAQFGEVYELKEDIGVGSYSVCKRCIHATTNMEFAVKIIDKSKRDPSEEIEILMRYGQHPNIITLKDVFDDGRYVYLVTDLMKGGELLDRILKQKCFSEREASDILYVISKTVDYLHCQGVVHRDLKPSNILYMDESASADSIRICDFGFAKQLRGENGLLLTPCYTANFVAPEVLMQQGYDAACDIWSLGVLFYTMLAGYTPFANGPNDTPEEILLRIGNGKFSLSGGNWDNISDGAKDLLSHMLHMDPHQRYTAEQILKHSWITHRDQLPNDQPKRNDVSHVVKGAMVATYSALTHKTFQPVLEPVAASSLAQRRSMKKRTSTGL
Chain of MYO3B (Q8WXR4 whole entry): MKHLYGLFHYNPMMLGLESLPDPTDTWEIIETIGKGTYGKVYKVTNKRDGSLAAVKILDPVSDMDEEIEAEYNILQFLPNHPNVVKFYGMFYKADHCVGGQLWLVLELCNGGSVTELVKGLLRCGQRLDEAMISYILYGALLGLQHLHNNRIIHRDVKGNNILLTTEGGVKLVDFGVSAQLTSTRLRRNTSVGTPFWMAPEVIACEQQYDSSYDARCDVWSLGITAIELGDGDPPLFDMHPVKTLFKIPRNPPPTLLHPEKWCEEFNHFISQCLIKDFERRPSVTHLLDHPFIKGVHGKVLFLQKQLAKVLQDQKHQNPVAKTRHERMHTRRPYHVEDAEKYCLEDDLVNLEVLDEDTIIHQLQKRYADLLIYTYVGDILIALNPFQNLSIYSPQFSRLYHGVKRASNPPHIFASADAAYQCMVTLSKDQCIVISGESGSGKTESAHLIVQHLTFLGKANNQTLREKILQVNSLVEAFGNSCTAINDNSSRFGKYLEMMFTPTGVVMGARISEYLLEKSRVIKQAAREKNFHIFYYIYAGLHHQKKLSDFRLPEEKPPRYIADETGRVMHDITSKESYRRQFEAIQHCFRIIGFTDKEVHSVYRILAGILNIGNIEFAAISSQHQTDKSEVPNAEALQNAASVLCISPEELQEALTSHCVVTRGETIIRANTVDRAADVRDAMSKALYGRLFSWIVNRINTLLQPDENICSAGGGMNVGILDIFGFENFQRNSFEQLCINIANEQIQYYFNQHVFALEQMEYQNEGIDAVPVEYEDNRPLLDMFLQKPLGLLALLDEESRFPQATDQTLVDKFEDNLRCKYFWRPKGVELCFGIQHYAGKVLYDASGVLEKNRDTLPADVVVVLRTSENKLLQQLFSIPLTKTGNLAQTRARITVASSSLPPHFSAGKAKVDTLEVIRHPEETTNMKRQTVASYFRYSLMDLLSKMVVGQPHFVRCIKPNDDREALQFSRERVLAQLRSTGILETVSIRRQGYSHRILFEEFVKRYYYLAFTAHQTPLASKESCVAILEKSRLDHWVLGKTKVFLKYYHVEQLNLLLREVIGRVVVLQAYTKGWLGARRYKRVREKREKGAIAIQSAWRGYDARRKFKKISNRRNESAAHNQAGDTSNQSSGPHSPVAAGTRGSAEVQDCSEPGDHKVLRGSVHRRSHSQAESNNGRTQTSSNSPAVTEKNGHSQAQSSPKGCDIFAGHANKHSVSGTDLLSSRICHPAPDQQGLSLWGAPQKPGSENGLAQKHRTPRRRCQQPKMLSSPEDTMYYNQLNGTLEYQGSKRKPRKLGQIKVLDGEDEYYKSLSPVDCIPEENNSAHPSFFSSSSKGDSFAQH
Chain of SBK1 (Q52WX2 whole entry): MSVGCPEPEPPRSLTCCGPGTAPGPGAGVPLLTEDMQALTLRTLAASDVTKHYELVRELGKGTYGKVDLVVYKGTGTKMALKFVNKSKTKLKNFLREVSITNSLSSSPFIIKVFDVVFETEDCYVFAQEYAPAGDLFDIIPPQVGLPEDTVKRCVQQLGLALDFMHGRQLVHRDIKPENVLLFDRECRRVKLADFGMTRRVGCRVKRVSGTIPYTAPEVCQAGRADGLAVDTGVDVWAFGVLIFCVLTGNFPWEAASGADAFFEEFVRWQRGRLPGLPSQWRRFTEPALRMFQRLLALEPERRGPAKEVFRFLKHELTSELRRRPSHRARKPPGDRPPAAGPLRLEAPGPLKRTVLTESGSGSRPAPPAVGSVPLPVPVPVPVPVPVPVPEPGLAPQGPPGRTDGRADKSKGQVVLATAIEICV
Chain of CAMKK2 (Q96RR4 whole entry): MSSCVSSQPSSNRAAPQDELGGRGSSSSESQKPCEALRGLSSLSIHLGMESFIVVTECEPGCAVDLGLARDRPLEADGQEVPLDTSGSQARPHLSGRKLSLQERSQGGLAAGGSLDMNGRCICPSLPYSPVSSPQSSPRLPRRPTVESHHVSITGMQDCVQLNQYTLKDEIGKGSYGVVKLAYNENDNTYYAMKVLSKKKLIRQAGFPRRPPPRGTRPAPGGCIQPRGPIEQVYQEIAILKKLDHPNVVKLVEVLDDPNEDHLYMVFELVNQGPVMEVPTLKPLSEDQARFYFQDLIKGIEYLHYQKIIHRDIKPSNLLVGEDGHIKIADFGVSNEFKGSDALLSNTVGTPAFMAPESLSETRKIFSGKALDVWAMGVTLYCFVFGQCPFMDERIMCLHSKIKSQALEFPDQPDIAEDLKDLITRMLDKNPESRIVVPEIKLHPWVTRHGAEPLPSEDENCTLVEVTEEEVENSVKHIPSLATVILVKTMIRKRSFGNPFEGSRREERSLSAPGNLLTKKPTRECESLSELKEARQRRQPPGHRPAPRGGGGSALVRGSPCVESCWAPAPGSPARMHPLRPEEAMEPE
T1 sequence (O14976 2-1311): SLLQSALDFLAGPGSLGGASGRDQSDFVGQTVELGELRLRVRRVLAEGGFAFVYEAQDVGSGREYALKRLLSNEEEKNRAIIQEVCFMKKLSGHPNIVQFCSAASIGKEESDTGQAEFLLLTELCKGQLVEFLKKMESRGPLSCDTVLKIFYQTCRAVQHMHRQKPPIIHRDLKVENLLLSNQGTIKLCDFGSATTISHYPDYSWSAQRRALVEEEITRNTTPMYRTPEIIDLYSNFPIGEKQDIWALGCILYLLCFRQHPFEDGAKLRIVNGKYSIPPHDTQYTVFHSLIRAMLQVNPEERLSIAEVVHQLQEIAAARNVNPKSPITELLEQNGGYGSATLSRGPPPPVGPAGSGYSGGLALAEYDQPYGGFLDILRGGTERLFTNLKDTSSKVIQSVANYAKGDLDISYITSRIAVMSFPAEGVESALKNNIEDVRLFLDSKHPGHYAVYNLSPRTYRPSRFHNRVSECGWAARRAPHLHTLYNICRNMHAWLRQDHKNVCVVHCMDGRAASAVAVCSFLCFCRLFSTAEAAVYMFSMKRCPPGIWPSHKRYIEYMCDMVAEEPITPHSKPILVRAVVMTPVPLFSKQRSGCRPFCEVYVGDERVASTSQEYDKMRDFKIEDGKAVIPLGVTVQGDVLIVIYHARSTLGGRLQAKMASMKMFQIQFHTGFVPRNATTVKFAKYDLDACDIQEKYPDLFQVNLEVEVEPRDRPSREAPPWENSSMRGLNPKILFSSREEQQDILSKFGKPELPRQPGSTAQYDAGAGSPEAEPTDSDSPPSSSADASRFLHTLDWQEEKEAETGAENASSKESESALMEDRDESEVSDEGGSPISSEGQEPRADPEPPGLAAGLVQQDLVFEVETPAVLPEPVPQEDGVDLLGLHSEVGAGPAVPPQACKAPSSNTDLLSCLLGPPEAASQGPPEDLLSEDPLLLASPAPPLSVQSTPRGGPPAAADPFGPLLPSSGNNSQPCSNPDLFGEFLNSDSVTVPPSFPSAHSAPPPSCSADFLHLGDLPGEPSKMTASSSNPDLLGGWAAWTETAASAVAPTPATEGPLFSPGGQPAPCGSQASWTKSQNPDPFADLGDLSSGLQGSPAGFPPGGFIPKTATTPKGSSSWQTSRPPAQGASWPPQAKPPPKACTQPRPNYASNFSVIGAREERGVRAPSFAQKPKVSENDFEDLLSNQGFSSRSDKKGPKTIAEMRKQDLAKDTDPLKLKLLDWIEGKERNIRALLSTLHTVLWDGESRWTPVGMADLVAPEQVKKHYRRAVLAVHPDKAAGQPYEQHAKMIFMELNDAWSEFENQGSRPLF
Chain of BMPR1A (P36894 whole entry): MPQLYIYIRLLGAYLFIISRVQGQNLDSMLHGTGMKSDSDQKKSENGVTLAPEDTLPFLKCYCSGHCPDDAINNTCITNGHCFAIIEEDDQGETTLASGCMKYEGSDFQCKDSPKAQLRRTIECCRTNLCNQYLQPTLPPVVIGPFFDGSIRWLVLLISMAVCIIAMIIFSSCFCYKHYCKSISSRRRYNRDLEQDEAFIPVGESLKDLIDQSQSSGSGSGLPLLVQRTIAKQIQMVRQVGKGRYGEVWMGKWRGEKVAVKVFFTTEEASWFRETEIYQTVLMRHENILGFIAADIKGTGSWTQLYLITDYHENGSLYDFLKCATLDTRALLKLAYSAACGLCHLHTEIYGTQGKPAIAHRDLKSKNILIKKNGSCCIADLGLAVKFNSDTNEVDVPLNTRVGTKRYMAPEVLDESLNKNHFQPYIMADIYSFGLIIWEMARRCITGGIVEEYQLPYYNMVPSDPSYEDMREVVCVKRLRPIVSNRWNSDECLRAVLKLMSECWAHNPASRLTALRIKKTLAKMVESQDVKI

As for `C[C@@H]1CC(=O)NN=C1c1ccc(NN=C(C#N)C#N)cc1` [levosimendan], the “percentage control at 10 μM” value on GAK and on KIT was under 30.0% each time. The remaining binding at 100 µM turned out to be 93% on BMPR1A; 54% on CAMKK2; 91% on MET(M1250T); 100% on MYO3B; 31% in [1] (read-out: Percent Control (100 uM Levosimendan)); 78% on SBK1. The remaining binding at 10 µM in assay [1] (read-out: Percent Control (10 uM Levosimendan)) came to 82%. Also, the “percentage control at 100 μM” value on MYLK4 was “two have intermediate binding affinities (MYLK4 and CAMK2)”. For the same compound, the percentage control entry at RIOK3 was “RIOK3, the closest homolog of RIOK1, showed the similar binding strength as RIOK1”.
